According to PMC7551609 (Viruses, 2020):
“Also recorded” adds a separate entry of the source. Read-outs that look alike come from different tables or passages of the source.

Key:
ZIKV Paraiba/2015 [1] = experiment: Growth kinetics inhibition assay (infectious viral progeny), Vero cells; format: cell-based, Zika virus
[2] = MTT cell viability assay in Vero cells; format: cell-based, African green monkey; conditions: African green monkey, non-infected Vero cells, 36 h post-treatment
ZIKV Paraiba/2015 [3] = experiment: Viral inhibition assay, pre-treatment (prophylactic), Vero cells; format: cell-based, Zika virus; conditions: for MIC / EC50: Zika virus; for MIC: read-out: Pre-treatment MIC (maximum effective concentration); for EC50: ZIKV Paraiba/2015, Vero cells, pre-treatment 12 h before infection
[4] = XTT cell proliferation in A549 cells; format: cell-based, human; conditions: human, highest concentration used 50.00 µM, sentence also cites [17]
[5] = MTT cell viability in A549 cells; format: cell-based, human; conditions: human, highest concentration used 50.00 µM, sentence also cites [17]
[6] = XTT cell proliferation assay in Vero cells; format: cell-based, African green monkey; conditions: African green monkey, non-infected Vero cells, 36 h post-treatment
ZIKV PRVABC59 strain = experiment: Viral inhibition assay, post-treatment, new World strain, Vero cells; format: cell-based, Zika virus; conditions: for inhibitor category based on SI-MTT / inhibitor category based on SI-XTT / inhibitor category based on SI-MTT and SI-XTT: ZIKV PRVABC59, Vero; for EC50 / MIC: Zika virus; for EC50: new World ZIKV PRVABC59, Vero cells, post-treatment, 48 h; for MIC: new World ZIKV PRVABC59, read-out: PRVABC59 MIC (maximum effective concentration)
ZIKV Paraiba/2015 [7] = experiment: Viral inhibition assay, co-treatment, Vero cells; format: cell-based, Zika virus; conditions: for Co-treatment MIC (maximum effective concentration): Vero cells, ZIKV Paraiba/2015, co-treatment; for inhibitor category based on SI-MTT and SI-XTT / inhibitor category based on SI-MTT / inhibitor category based on SI-XTT: co-treatment, Paraiba/2015, Vero
ZIKV Paraiba/2015 [8] = experiment: Viral inhibition assay, post-infection treatment, Vero cells; format: cell-based, Zika virus; conditions: for EC50: 36 h, ZIKV Paraiba/2015, Vero cells, post-infection treatment; for MIC: read-out: Post-treatment MIC (maximum effective concentration); for inhibitor category based on SI-MTT and SI-XTT / inhibitor category based on SI-MTT / inhibitor category based on SI-XTT: post-treatment, Paraiba/2015, Vero
Caspase 3 and 7 = experiment: Apoptosis assay (Caspase Glo 3/7) in ZIKV-infected Vero cells; conditions: 0, 0.1, 1, 10 EC50; 24, 48, 72 h post-treatment
ZIKV Paraiba/2015 [9] = experiment: Viral inhibition assay, post-treatment, human A549 cells; format: cell-based, Zika virus; conditions: for inhibitor category based on SI-MTT and SI-XTT: Paraiba/2015, A549 cells; for MIC / EC50: Zika virus; for MIC: in Homo sapiens, read-out: A549 cells MIC (maximum effective concentration); for EC50: ZIKV Paraiba/2015, A549 cells, post-treatment, 36 h
ZIKV MR-766 strain = experiment: Viral inhibition assay, post-treatment, old World strain, Vero cells; format: cell-based, Zika virus; conditions: for EC50 / MIC: Zika virus; for EC50: old World ZIKV MR-766, Vero cells, post-treatment; for MIC: old World ZIKV MR-766 strain, read-out: MR766 MIC (maximum effective concentration)
[10] = tested on: ZIKV cocktail of MR-766, FSS13025, and MEX-2-81; conditions: JEG-3 cells, ZIKV cocktail of MR-766, FSS13025, MEX-2-81; cited from earlier work
ZIKV PRVABC59 [11] = tested on: ZIKV PRVABC59; set-up: method as in ref 22 = [22]; conditions: ZIKV PRVABC59, U251 cells; cited from earlier work
ZIKV PRVABC59 [12] = tested on: ZIKV PRVABC59; set-up: method as in ref 22 = [22]; conditions: ZIKV PRVABC59, SF268 cells; cited from earlier work
ZIKV PRVABC59 [13] = tested on: ZIKV PRVABC59; set-up: method as in ref 22 = [22]; conditions: ZIKV PRVABC59, Huh-7 cells; cited from earlier work
ZIKV-MEX-2-81 = conditions: ZIKV-MEX-2-81, U2OS cells; cited from earlier work
[14] = pre-treatment, Paraiba/2015, Vero
[15] = 0.1, 1, 10 EC50, all time points (24, 48, 72 h post-treatment), MOI 0.1

Structure (SMILES)	CC50 at 36 h ([2]; confluent monolayers) [µM]	MIC (ZIKV Paraiba/2015 [3]) [µM]	EC50 (ZIKV Paraiba/2015 [3]) [µM]	inhibitor category based on SI-MTT (ZIKV Paraiba/2015 [3]; [14])	inhibitor category based on SI-XTT (ZIKV Paraiba/2015 [3]; [14])	CC50 [4] [µM]	CC50 [5] [µM]	CC50 at 36 h ([6]; confluent monolayers) [µM]	EC50 (ZIKV PRVABC59 strain) [µM]	MIC (ZIKV PRVABC59 strain) [µM]	Co-treatment MIC (maximum effective concentration) (ZIKV Paraiba/2015 [7]) [µM]	inhibitor category based on SI-MTT and SI-XTT (ZIKV Paraiba/2015 [7])	EC50 (ZIKV Paraiba/2015 [8]; Zika virus, Vero) [µM]	MIC (ZIKV Paraiba/2015 [8]; Zika virus) [µM]	inhibitor category based on SI-MTT and SI-XTT (ZIKV Paraiba/2015 [8])	inhibitor category based on SI-MTT and SI-XTT (ZIKV Paraiba/2015 [9])	MIC (ZIKV Paraiba/2015 [9]) [µM]	EC50 (ZIKV Paraiba/2015 [9]) [µM]	EC50 (ZIKV MR-766 strain) [µM]	MIC (ZIKV MR-766 strain) [µM]	also measured
O=C(O)C1=CC(=C(c2ccc(O)c(C(=O)O)c2)c2ccc(O)c(C(=O)O)c2)C=CC1=O [ATA, Aurintricarboxylic acid]	> 1350	> 100	9.86	potent	moderate	> 50	> 50	> 1350	4.74	< 33.3	< 33.30	potent	21	> 100	moderate to weak	weak	< 100	6.67	8.08	< 33.3	effect on production of infectious viral progeny (viral titers) (ZIKV Paraiba/2015 [1]; 10 EC50): complete inhibition; inhibitor category based on SI-MTT (ZIKV PRVABC59 strain): moderate; inhibitor category based on SI-XTT (ZIKV PRVABC59 strain): weak; caspase 3/7 activation in ZIKV-infected cells (Caspase 3 and 7): dose-dependent effect; inhibitor category based on SI-MTT and SI-XTT (ZIKV MR-766 strain; ZIKV MR-766, Vero): weak
COc1c(C)c2c(c(O)c1C/C=C(\C)CCC(=O)OCCN1CCOCC1)C(=O)OC2 [Mycophenolate mofetil]	166	> 100	8.11	Potent; also recorded: moderate	potent	> 50	> 50	> 1350	0.12	< 1.23	> 100.00	potent	3.54	> 100	moderate to weak	weak	< 11.1	0.83	0.24	< 1.23	effect on production of infectious viral progeny (viral titers) (ZIKV Paraiba/2015 [1]; [15]): dose-dependent inhibitory effect; EC50 [10]: 0.76 µM; inhibitor category based on SI-MTT and SI-XTT (ZIKV PRVABC59 strain): potent; inhibitor category based on SI-MTT (ZIKV Paraiba/2015 [7]): Potent; inhibitor category based on SI-XTT (ZIKV Paraiba/2015 [7]): potent; EC50 (ZIKV Paraiba/2015 [8]): 3.52 µM; inhibitor category based on SI-MTT and SI-XTT (ZIKV MR-766 strain; ZIKV MR-766, Vero): most potent; also recorded: potent
NCC(=O)Nc1ccc(-n2nc(C(F)(F)F)cc2-c2ccc3c(ccc4ccccc43)c2)cc1 [OSU-03012]	–	< 3.7	0.93	moderate	highest potent	> 50	> 50	–	1.68	> 11.1	> 100.00	–	6.85	< 33.3	weakest	moderate	< 1.23	0.21	0.81	< 11.1	effect on production of infectious viral progeny (viral titers) (ZIKV Paraiba/2015 [1]; 1 EC50, all the analyzed times, may be caused by toxicity): Complete inhibition; CC50 at 36 h [2]: 6.39 µM; EC50 (ZIKV PRVABC59 [11]): 0.84 µM; CC50 at 36 h [6]: 132 µM; inhibitor category based on SI-MTT (ZIKV PRVABC59 strain): weak; inhibitor category based on SI-XTT (ZIKV PRVABC59 strain): moderate; EC50 (ZIKV PRVABC59 [12]): 1.18 µM; EC50 (ZIKV Paraiba/2015 [7]; Zika virus, Vero): 1.77 µM; inhibitor category based on SI-MTT (ZIKV Paraiba/2015 [7]): weak; inhibitor category based on SI-XTT (ZIKV Paraiba/2015 [7]): potent; EC50 (ZIKV Paraiba/2015 [8]): 8.4 µM; inhibitor category based on SI-MTT (ZIKV Paraiba/2015 [8]): weak; inhibitor category based on SI-XTT (ZIKV Paraiba/2015 [8]): weak; EC50 (ZIKV PRVABC59 [13]): 0.82 to 0.88 µM; EC50 (ZIKV-MEX-2-81): 0.9 µM; inhibitor category based on SI-MTT (ZIKV MR-766 strain; ZIKV MR-766, Vero): weak; inhibitor category based on SI-XTT (ZIKV MR-766 strain; ZIKV MR-766, Vero): moderate
NC(=O)c1[nH]nc([C@@H]2O[C@H](CO)[C@@H](O)[C@H]2O)c1O [Pyrazofurin]	271	> 100	313	–	weakest	> 50	> 50	> 1350	0.95	< 3.7	> 100.00	weak	5.16	> 100	moderate to weak	moderate	< 1.23	0.33	0.89	< 3.7	effect on production of infectious viral progeny (viral titers) (ZIKV Paraiba/2015 [1]; [15]): dose-dependent inhibitory effect; inhibitor category based on SI-MTT and SI-XTT (ZIKV Paraiba/2015 [3]; [14]): weak; inhibitor category based on SI-MTT and SI-XTT (ZIKV PRVABC59 strain): moderate; inhibitor category based on SI-MTT (ZIKV Paraiba/2015 [7]): weak; EC50 (ZIKV Paraiba/2015 [8]): 5.96 µM; inhibitor category based on SI-MTT (ZIKV Paraiba/2015 [8]): moderate; inhibitor category based on SI-XTT (ZIKV Paraiba/2015 [8]): weak; inhibitor category based on SI-MTT and SI-XTT (ZIKV MR-766 strain; ZIKV MR-766, Vero): moderate
